Experimental data from patent US9592243B2, “Medical devices and methods comprising an anabolic agent for treatment of an injury” (Warsaw Orthopedic, Inc., priority 2011, dated 2017).

Test system: surgical injury (linear full-thickness incisions)
Assay: Injury strength of full-thickness surgical incisions, vacuum failure pressure (BTC-2000)
Type: in vivo, male hairless guinea pigs
Text: In a recent proof-of-concept study, male hairless guinea pigs (n=30) receive bilateral incisions as previously described by Storch, Perry, Davidson, and Ward (Surg Infect (Larchmt) 2002; 3 Suppl 1:S89-98) This reference is herein incorporated by reference. Two linear full-thickness incisions exactly 2 cm long and separated by approximately 3 cm were made on the left and right dorsolateral regions of all animals. Incisions extend through the dermis and subcutaneous tissue and panniculus carnosus muscle. After the injuries were created, 200 μL of a […] aqueous suspension (1 mg of drug, ˜2.7 mg/kg) of generic stanozolol was applied directly into the injury bed in the right flank but not left flank of n=16 animals. The injury bed on the left side of these animals received 200 μL of saline vehicle control. In the remaining fourteen animals, incisions were not treated (nothing applied control). Only the incision in the right flank was assessed for injury strength in the nothing applied control animals. All injuries were then closed with interrupted nylon sutures. On days 2, 4, and 6 (in remaining animals), animals in the stanozolol group received 100 μL (0.5 mg, ˜1.4 mg/kg) of the same stanozolol suspension in the right injury and 100 μL of saline in the left injury, carefully injected with an insulin syringe introduced lateral to the injury and directed towards the injury bed. For each time point (days 5 and 7), injury strength was tested in 7 nothing applied control guinea pigs and 8 stanozolol guinea pigs after carefully removing dressing and sutures. Injury strength was measured by applying a vacuum to the injury and recording the pressure at which the injury fails. Biomechanical testing was performed under anesthesia using the […] (SRI Technologies, Nashville). A disposable acrylic test ring was placed around the injury and secured to the skin using acrylate glue. The BTC-2000™ test chamber (2.5 cm ID) was mated to the test ring. An escalating negative pressure was applied to the injury at a rate of 10 mm Hg/second, producing a multi-axial stress on the injury. […]

C[C@]12Cc3c[nH]nc3C[C@@H]1CC[C@@H]1[C@@H]2CC[C@@]2(C)[C@H]1CC[C@]2(C)O [stanozolol]
Effect on contralateral (saline treated, left flank) injuries in stanozolol treated animals (local stanozolol in right injury only, days 5 and 7): No effect | Injury strength when exposed to pressure, compared to injuries with control or placebo (FIG. 1) (locally injected bolus dose of 1 mg initially, then 0.5 mg on days 2, 4, 6, tested on days 5 and seven): highest injury strength | Injury strength (pressure at which the injury fails) compared to nothing applied control injuries (stanozolol aqueous suspension applied locally into right flank injury, 1 mg initially then 0.5 mg on days 2, 4, 6, tested on days 5 and 7): significantly stronger
